One assay has as its system LAD2 cells. Description: MIP-1β generation by LAD2 cells (ELISA). In kind it is cell-based, human. As for the experimental part: FIG. 2. Requirement for P2Y12 receptors in LTE4-mediated LAD2 cell activation. 2A. Calcium flux of LAD2 cells stimulated with the indicated agonists (500 nM) in the presence or absence of the P2Y12 receptor-selective antagonist 2-MeSAMP (100 μM). […] 2B. […] Cells sensitized overnight with IgE and challenged with anti-IgE were used as the positive control. 2C. […] Results in 2B and 2C are mean±SEM from three independent experiments each. 2D. Effect of shRNA-mediated knockdown of P2Y12 receptor mRNA expression by LAD2 cells.
FIG. 9. Effect of apyrase treatment on LT-mediated activation of LAD2 cells. 9A. […] Concentrations of MIP-1β were measured by ELISA. 9B. […] Lysates were resolved by SDS-PAGE and probed with the indicated antibodies against phospho- and total ERK. Results in 9A are the mean±½ range from two experiments, while 9B is representative of two experiments.
Pre-treatment of the LAD2 cells with 2-MesAMP blocked the LTE4-mediated increment in MIP-1β production by >50% (FIG. 2B). […] To exclude potential off-target effects of the inhibitors, samples of LAD2 cells were transfected with lentiviruses encoding a P2Y12 sequence-specific shRNA, a CysLT1R-specific shRNA, or an empty vector control before stimulation. […] LTE4- and LTD4-dependent production of PGD2 were abrogated by the knockdowns of P2Y12 and CysLT1R, respectively (FIG. 2C, bottom). Neither GPCR knockdown altered MIP-1β generation or PGD2 production in response to IgE-anti-IgE (FIG. 2C). LTE4-mediated MIP-1β generation (FIG. 9A) and ERK activation (FIG. 9B) were not altered by treatment of LAD2 cells with apyrase to degrade extracellular ADP.
The concentration of MIP-1β was measured by an ELISA (ENDOGEN®). PGD2 was quantitated by a PGD2-methoxylamine hydrochloride (PGD2-MOX) assay.

The test system of a further assay is BALB/c mice. Description: Cys-LT amplification of pulmonary inflammation in OVA sensitized, low-dose OVA challenged BALB/c mice. In kind it is in vivo, mouse. The conditions noted are these: intranasal cys-LT 12 h before each 0.1% OVA challenge. The method, then:
FIG. 3. LTE4-mediated amplification of allergen-induced pulmonary inflammation. 3A. BAL fluid total cell counts (top) with percentages (middle) and total numbers (bottom) of eosinophils. Mice were sensitized twice with alum-precipitated ovalbumin (OVA). […] A separate sensitized group of mice were treated with 1% OVA as a positive control. 3B. Quantitative analysis if pulmonary inflammation, measured as the number of bronchovascular bundles with cellular infiltrates per 15 such bundles per mouse. 3C. Representative fields of H & E-stained lungs from mice from the indicated experimental groups. 3D. Morphometric analysis of goblet cell metaplasia, measured as the numbers of PAS-positive cells per mm of bronchial basal lamina. 3E. Representative PAS stains showing goblet cells (arrows). Results in 3A, 3B, and 3D are mean±SEM from 8-9 mice per group.
Thus, it was sought to determine whether either cys-LT amplified pulmonary inflammation induced by the inhalation of low-dose allergen in sensitized mice. Two weeks after sensitization with chicken egg ovalbumin (OVA) by intraperitoneal injection, BALB/c mice received inhalation challenges on three consecutive days with low-dose OVA (0.1%) for 30 minutes. Twelve hours before each challenge, the mice received intranasal LTD4, LTE4, or a buffer control. A cohort of mice treated with 1% OVA were maintained as a positive control. The mice were then euthanized, their BAL fluid collected, and their lungs examined histologically for evidence of inflammation and goblet cell metaplasia, a dominant pathologic signature of Th2-polarized mucosal inflammation. […] The extent of the cellularity and goblet cell responses of the LTE4-treated animals approached the levels of these parameters in the mice treated with 1% OVA.
Male BALB/c mice (6-8 weeks old) received intraperitoneal injections of reagent-grade chicken egg ovalbumin (OVA) (10 μg) precipitated with aluminum hydroxide ([…]) on days 0 and 7. […] Twelve hours after each dose, the mice were exposed to an aerosol of 0.1% OVA for 30 min delivered by an ultrasonic nebulizer. […] The mice were euthanized 24 hours after their third and final aerosol challenge. In some experiments, the mice received clopidogrel (500 μg/ml) in drinking water for 3 days before receiving the first intranasal dose of LTs. The treatment was continued throughout the procedure.
15 bronchovascular bundles of each mouse were evaluated.

A further assay has as its target human P2Y12 (Homo sapiens, UniProt Q9H244). Description: Binding of [P^33]2-MesADP and [H^3]LTE4 to membranes of COS-7 cells transfected with the human P2Y12 construct. On the set-up: polyhistidine (HIS) tag (C); expressed in transfected cells; host or cells: COS-7 cells, transient. The conditions noted are these: COS-7 membranes, forward P2Y12 construct. The method, then: FIG. 10. Competitive ligand binding assays. 10A. […] Specific binding (typically 50-75% of the total) was calculated by subtracting the amount of radiolabel that was insensitive to the selective P2Y12 receptor antagonist 2-MesAMP. Nonspecific binding was essentially identical in the membranes with and without P2Y12 receptor knockdown. The dose response for the LAD2 membranes are from a single experiment repeated four times with similar results. The binding on the LAD2 cells with P2Y12 knocked down was repeated twice. 10B. Specific binding of radiolabeled ADP (2000 nM) to membranes of LAD2 cells. […] Results are mean±SD from three separate experiments. 10C. Conversion of radiolabeled LTD4 to LTE4 as confirmed by HPLC (left). […] Results in a second experiment were similar 10D. Competitive binding of radiolabeled 2-MesADP to COS-7 cells transfected with the human P2Y12 construct.
Competitive radioligand binding assays were performed using [H^3]ADP (the known natural ligand of P2Y12 receptors) and unlabeled LTs as competitors. […] The membranes from the transfectants expressing the forward construct bound [P^33]2-MesADP, a selective P2Y12 receptor agonist.

Chain of human P2Y12 (Q9H244 whole entry): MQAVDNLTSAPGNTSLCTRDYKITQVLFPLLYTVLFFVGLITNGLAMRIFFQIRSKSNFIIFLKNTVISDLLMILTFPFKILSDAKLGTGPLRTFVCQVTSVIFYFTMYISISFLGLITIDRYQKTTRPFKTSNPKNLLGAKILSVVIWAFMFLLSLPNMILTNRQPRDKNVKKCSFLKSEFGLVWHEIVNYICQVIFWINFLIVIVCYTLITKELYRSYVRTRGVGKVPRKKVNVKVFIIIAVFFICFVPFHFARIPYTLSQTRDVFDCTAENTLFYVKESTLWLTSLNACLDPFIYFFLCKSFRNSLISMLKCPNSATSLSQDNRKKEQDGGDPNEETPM

Regarding `CN(C)C(=O)CCSC(SCCC(=O)O)c1cccc(/C=C/c2ccc3ccc(Cl)cc3n2)c1` (centres unmarked) [MK571], the “effect on MIP-1β response to LTD4 and LTE4” value with LAD2 cells (2-MesAMP 100 μM, MK571 1 μM) is on record as “suppressed the response to both ligands”.
Regarding `CCCCC/C=C\C\C=C/C=C/C=C/[C@@H](SC[C@H](N)C(=O)NCC(=O)O)[C@@H](O)CCCC(=O)O` [LTD4], in the assay with BALB/c mice, the BAL fluid eosinophilia entry is given as “did not increase”, the bronchovascular inflammation result is “tended to slightly potentiate” and the goblet cell metaplasia result is “tended to slightly potentiate”. Also, the “competition for [P^33]2-MesADP binding” value on human P2Y12 was “not competed”.
As for `CCCCC/C=C\C\C=C/C=C/C=C/[C@@H](SC[C@H](N)C(=O)O)[C@@H](O)CCCC(=O)O` [LTE4], in the assay on BALB/c mice, the BAL fluid eosinophilia result is listed as “significantly enhanced”, the bronchovascular inflammation entry was “significantly enhanced” and the goblet cell metaplasia entry is given as “significantly enhanced”. Also, the MIP-1β generation result in the assay with LAD2 cells (LTE4 100 and 500 nM, 6 h) is on record as “induced the generation of large amounts of MIP-1β”. Further, on human P2Y12, the “binding of [H^3]LTE4 to membranes” value is “failed to bind” and the “competition for [P^33]2-MesADP binding” value is on record as “not competed”.
